Earlier results as cited in US7196076B2, “Androgen receptor modulators and methods of use thereof” (Merck & Co., Inc., priority 2001, dated 2007).
Counter-ions that a name gives are not always drawn.

What was measured:
[1] = after 7 years of treatment
[2] = median of 22 months of treatment

| Compound | increase in spinal BMD [1] | reduction in nonvertebral fractures [2] | reduction in spine fractures [2] |
| --- | --- | --- | --- |
| NCCCC(O)(P(=O)(O)O)P(=O)(O)O [alendronate, 4-amino-1-hydroxybutylidene-1,1-bisphosphonic acid monosodium salt, trihydrate] | 11% |  |  |
| hPTH(1–34): human parathyroid hormone 1–34 fragment (SVSEIQLMHNLGKHLNSMERVEWLRKKLQDVHNF; Parathyroid hormone; UniProt P01270 32-65, looked up, fragment) |  | 54% | ≥ 65% |
